# US20140228407A1, “TETRA-PYRIDINE COMPOUNDS AND COMPOSITION FOR PROTECTING CELLS, TISSUES AND ORGANS AGAINST ISCHEMIA-REPERFUSION INJURY” (YISSUM RESEARCH DEVELOPMENT COMPANY OF THE HEBREW …, priority 2011, published 2014)
# How the values were obtained:
# [1] = tested on: neonate rat cardiomyocyte cells; test: Hypoxia in neonatal rat cardiomyocyte cultures, propidium iodide (PI) staining; assay type: cell-based; settings: after 3.5 hours of reoxygenation
# Description: Rat hearts (1-2 days old) were sterilely removed and bathed three times in Ca^2+- and Mg^2+-free PBS to remove excess blood cells. The hearts were minced to small fragments and then agitated in a proteolytic enzyme-RDB solution prepared from a fig tree extract as described previously (Brik et al., 1990; Shneyvays et al., 2001). The RDB was diluted 1:200 in PBS at 25° C. for a few cycles of 10 min each. The supernatant suspension containing dissociated cells, to which medium containing 10% horse serum was added, was centrifuged at 500 g for 5 min. After centrifugation, the supernatant phase was discarded, and cells were resuspended in Dulbecco's modified Eagle medium supplemented with 10% heat-inactivated horse serum and 0.5% chick embryo extract. […]
# Cultured cardiomyocytes were incubated with propidium iodide (5 μg/ml) (Molecular Probes, Eugene, Oreg.) in PBS for 30 min at 37° C., and propidium iodide (PI) staining was performed by incubating the cells with PI (5 μg/ml) (Molecular Probes, Eugene, Oreg.) in PBS for 30 min at 37° C. in order to differentiate between dead and survived cells following hypoxia (PI-fluorescent stain only nucleus of damaged cardiomyocytes). Thereafter, cells were bathed with PBS twice, and the cell fluorescence was measured through excitation at 485 nm and emission at 635 nm. […]
# [2] = tested on: model of ischemia/reperfusion in the CD rat; test: Rat model of ischemia/reperfusion, cardiovascular monitoring (blood pressure, heart rate; Phase B); assay type: in vivo
# Description: The animals in Phase B were monitored for selected cardiovascular endpoints from at least 15 minutes prior to acute myocardial infarction until at approximately 1 hour post reperfusion. Blood samples for the evaluation of Troponin I were collected from all surviving Phase B animals prior to coronary artery occlusion and at termination. At study termination, the Phase B animals were submitted to necropsy for limited necropsy examinations and infarct analysis.
# In Phase B, Compound #6 was administered once on Day 0 via intravenous infusion at dose levels of 0.2 and 2 mg/kg. The doses were administered at a dose volume of 1 mL/kg (0.05 [2 mg/kg] or 0.033 [0.2 mg/kg] mL/kg/minute). Two control groups received the vehicle (saline) or the vehicle for Compound #6 (10% (w/v) 2-hydroxypropyl-beta-cyclodextrin and 100 mM sodium chloride in deionized water) in the same manner as the 2 mg/kg treated group. The vehicles and 2 mg/kg Compound #6 were administered intravenously via a slow infusion starting 3 to 14 minutes prior to reperfusion and continuing for 20 minutes to 20 minutes and 32 seconds, which was approximately 6 to 17 minutes after reperfusion (depending on the infusion start time). The 0.2 mg/kg Compound #6 was administered intravenously via a slow infusion starting 10 minutes prior to reperfusion and continuing for 30 minutes to 30 minutes and 30 seconds, which was approximately 20 minutes after reperfusion. The positive control article, Erythropoietin, was administered at 5000 IU/kg via a bolus intravenous injection. The positive control article dose was administered at a dose volume of 2.5 mL/kg. The positive control was administered via a 3 to 60 second injection at 5 minutes prior to reperfusion.
# In Phase B, animals were anesthetized for monitoring of selected cardiovascular parameters. For experimentation, the blood pressure catheter implanted in the carotid artery was attached to an external transducer and data acquisition was started. Blood pressure (systolic, diastolic, and mean arterial) and heart rate (derived from blood pressure) were monitored from at least 15 minutes prior to acute myocardial infarction (AMI) until at least 1 hour after reperfusion. Individual animal cardiovascular data tables are not reported but are maintained in the study file.
structure (smiles),measurement,setting,value
Cc1ccc(CN(CCN(Cc2ccc(C)cn2)Cc2ccc(C)cn2)Cc2ccc(C)cn2)nc1 [Compound #6],"protection by PI staining, 100 nM versus other concentrations of the same compound",[1]; 100 nM,improve protection vs. other #6 concentrations
same,"protection from hypoxic injury by PI nuclei staining compared with 1 μM TPEN, FIG. 1B","[1]; all concentrations 1 μM, 300 nM, 100 nM and 30 nM",better protection than 1 μM of TPEN
same,mean arterial pressures after reperfusion,"[2]; 0.2 mg/kg, within 5-10 minutes of reperfusion",increased
same,time at which blood pressure reached peak levels post reperfusion,"[2]; 2 mg/kg, approximately 5 minutes following completion of the infusion",approximately 20 minutes
same,heart rate,[2]; 0.2 and 2.0 mg/kg,unaffected
same,blood pressures during infusion,"[2]; both dose levels (0.2 and 2.0 mg/kg), returned to levels comparable to vehicle animals after infusion",slightly elevated
